{"source": "patent US20230021483A1", "about": "“[…] […] METHOD AND CLASSIFICATION OF PHARMACEUTICAL COMPONENTS BY USING TRANSCRIPTOMES” (National Institutes of Biomedical Innovation, Health and …, priority 2016, published 2023)", "key": {"[1]": {"conditions": "literature reports; cited from earlier work"}, "circulating blood cells": {"tested_on": "circulating blood cells", "experiment": "Hematological cell count of peripheral blood 6 h after adjuvant administration (VetScan HMII)", "type": "in vivo, C57BL/6 mice", "protocol": "Take about 200 μL of blood from the retro-orbital venous plexus with a non-heparinized capillary tube and place the blood into a 1.5 mL tube comprising 2 μL of 10% EDTA-2K for hematological testing. Thoroughly mix the sample by gentle tapping. Stored at room temperature until hematological testing.\nThe hematological cell count was found using VetScan HMII (Abaxis). 50 μl of EDTA-2K blood sample was diluted by adding 250 μl of saline. Measurements are taken with VetScan HMII by following the instruction.\nIn a preliminary experiment, FCA and ALM were tested at different points up to 72 hours. […] At 6 hours after adjuvant administration, LV, SP, and LN (both sides) were removed to study the gene expression thereof by using Affimetrix Genechip microarray system (Affymetrix). The sampled organs were each placed in a tube containing RNAlater. The tube was maintained at 4° C. overnight, and stored at −80° C. until use. Blood was also collected after 6 hours from adjuvant administration for general hematological testing. About 200 μL of blood was taken from the retro-orbital venous plexus with a non-heparinized capillary tube and placed into a 1.5 mL tube comprising 2 μL of 10% EDTA-2K for hematological testing. The hematological cell count was found using VetScan HMII (Abaxis). 50 μl of EDTA-2K blood sample was diluted by adding 250 μl of saline. Measurements were taken with VetScan HMII by following the instruction.\nThe effect of adjuvant administration with respect to the changes in several hematological parameters was investigated. The following parameters were studied: white blood cells (WBC), lymphocytes (LYM), monocytes (MON), granulocytes (GRA), relative (%) content of lymphocytes (LY %), relative (%) content of monocytes (MO %), relative (%) content of granulocytes (GR %), red blood cells (RBC), hemoglobins (Hb, HGB), hematocrits (HCT), mean corpuscular volume (MCV), mean corpuscular hemoglobins (MCH), mean corpuscular hemoglobin concentration (MCHC), red blood cell distribution width (RDW), platelets (PLT), platelet concentration (PCT), mean platelet volume (MPV), and platelet distribution width (PDW)."}, "liver": {"tested_on": "liver", "conditions": "mouse, in vivo, ip", "procedure": "After 3 hours/6 hours, blood and liver were collected on day 1, day 2, day 3, and day 5. Hematoxylin and eosin staining was applied to the collected liver and histologically analyzed (FIG. 20)."}, "[2]": {"conditions": "peripheral blood 6 h after administration"}}, "data": [{"compound": "Cc1ccc2c(=O)c3cccc(CC(=O)O)c3oc2c1C", "note": "[DMXAA, 5,6-dimethylxanthenone-4-acetic acid]", "values": [{"measurement": "Th response induced", "setting": "[1]", "result": "induces Th2 responses"}]}, {"compound": "Nc1nc2c(ncn2[C@@H]2O[C@@H]3COP(=O)(O)O[C@H]4[C@@H](O)[C@H](n5cnc6c(=O)[nH]c(N)nc65)O[C@@H]4COP(=O)(O)O[C@H]3[C@H]2O)c(=O)[nH]1", "note": "[cdiGMP, Cyclic diguanylate monophosphate]", "values": [{"measurement": "monocytosis (monocytes in blood)", "setting": "circulating blood cells; [2]", "result": "clearly induced"}, {"measurement": "Th response induced", "setting": "[1]", "result": "appears to induce Th1 responses"}]}, {"compound": "CCOCc1nc2c(N)nc3ccccc3c2n1CC(C)(C)O", "note": "[R848, 4-amino-2-(ethoxymethyl)-a,a-dimethyl-1H-imidazo[4,5-c]quinoline-1-ethanol]", "values": [{"measurement": "leukopenia", "setting": "circulating blood cells; [2]", "result": "caused leukopenia"}, {"measurement": "lymphopenia", "setting": "circulating blood cells; [2]", "result": "strongly induced"}]}, {"compound": "Nc1nc2c(ncn2[C@@H]2O[C@@H]3COP(=O)(O)O[C@H]4[C@@H](O)[C@H](n5cnc6c(N)ncnc65)O[C@@H]4COP(=O)(O)O[C@@H]2[C@@H]3O)c(=O)[nH]1", "note": "[cGAMP, Cyclic [G(2′,5′)pA(3′,5′)p]]", "values": [{"measurement": "monocytosis (monocytes in blood)", "setting": "circulating blood cells; [2]", "result": "clearly induced"}]}, {"compound": "CC(O)COC[C@H]1O[C@@H]2O[C@H]3[C@H](O)[C@@H](O)[C@@H](O[C@H]4[C@H](O)[C@@H](O)[C@@H](O[C@H]5[C@H](O)[C@@H](O)[C@@H](O[C@H]6[C@H](O)[C@@H](O)[C@@H](O[C@H]7[C@H](O)[C@@H](O)[C@@H](O[C@H]8[C@H](O)[C@@H](O)[C@@H](O[C@H]1[C@H](O)[C@H]2O)O[C@@H]8COCC(C)O)O[C@@H]7COCC(C)O)O[C@@H]6COCC(C)O)O[C@@H]5COCC(C)O)O[C@@H]4COCC(C)O)O[C@@H]3COCC(C)O", "note": "(stereo partly drawn) [bCD, Hydroxypropyl-beta-cyclodextrin]", "values": [{"measurement": "monocytosis (monocytes in blood)", "setting": "circulating blood cells; [2]", "result": "clearly induced"}]}, {"compound": "heptanoyl-γ-D-glutamyl-(L)-meso-diaminopimelyl-(D)-alanine [FK565]", "values": [{"measurement": "histological finding in liver (hematoxylin and eosin)", "setting": "liver", "result": "liver damage"}, {"measurement": "granulocytosis (granulocytes in blood)", "setting": "circulating blood cells; mouse, in vivo", "result": "caused granulocytosis"}, {"measurement": "leukopenia", "setting": "circulating blood cells; mouse, in vivo", "result": "caused leukopenia"}, {"measurement": "lymphopenia", "setting": "circulating blood cells; mouse, in vivo", "result": "strongly induced"}]}, {"compound": "Monophosphoryl lipid A [MPLA]", "values": [{"measurement": "monocytosis (monocytes in blood)", "setting": "circulating blood cells; [2]", "result": "clearly induced"}]}]}
